Source: US11434289B2, “Anti-GPR20 antibody and anti-GPR20 antibody-drug conjugate” (DAIICHI SANKYO COMPANY, LIMITED, priority 2017, dated 2022)

Assays:
GIST074 = assay: Antitumor effect in subcutaneously GIST074-transplanted nude mouse models (regorafenib-unresponsive patient tumor); type: in vivo, BALB/c nude mice; conditions: orally once a day; imatinib 90, sunitinib 30, regorafenib 4 mg/kg; FIG. 36
Protocol: The antitumor effects of the antibody-drug conjugates were evaluated using animal models derived from immunodeficient mice by the transplantation of human gastrointestinal stromal tumor-derived cells. Five- to 6-week-old female BALB/c nude mice (CAnN.Cg-Foxnlnu/CrlCrlj, Charles River Laboratories Japan Inc.) were acclimatized for 4 to 7 days under SPF conditions before use in the experiment. The mice were fed with a sterilized solid diet (FR-2, Funabashi Farms Co., Ltd) and given sterilized tap water (which had been prepared by adding a 5 to 15 ppm sodium hypochlorite solution to tap water). The longest diameter and the shortest diameter of the transplanted tumor were measured once or twice a week using electronic digital calipers (CD-15CX, Mitutoyo Corp.), and the volume of the tumor was then calculated according to the following equation. Tumor volume (mm^3)=½×Longest diameter (mm)×[Shortest diameter (mm)]^2
[…] ABS buffer was administered in the same manner as above to a control group (vehicle group). Five or six mice per group were used in the experiment. […]

[1] = system: human gastrointestinal stromal tumor cell line GIST430/654; assay: Antitumor effect and combined use with sunitinib in GIST430/654-transplanted nude mouse models (imatinib resistance mutation V654A in KIT); type: in vivo, BALB/c nude mice; conditions: orally once a day; imatinib 150, sunitinib 40 mg/kg; FIG. 37
Protocol: The effect of combined use with sunitinib was evaluated in models with human gastrointestinal stromal tumor cell line GIST430/654 (obtained from Brigham Women's Hospital) having imatinib resistance mutation V654A in the KIT gene. […]

SMILES	tumor growth (GIST074)	tumor growth [1]
CNC(=O)c1cc(Oc2ccc(NC(=O)Nc3ccc(Cl)c(C(F)(F)F)c3)c(F)c2)ccn1 [regorafenib]	tumor growth was not completely suppressed	–
Cc1ccc(NC(=O)c2ccc(CN3CCN(C)CC3)cc2)cc1Nc1nccc(-c2cccnc2)n1 [imatinib]	tumor growth was not completely suppressed	did not suppress tumor growth
